Measured values reported in ChEMBL document CHEMBL3396992, “Synthesis and biological evaluation of pyrazolylthiazole carboxylic acids as potent anti-inflammatory-antimicrobial agents” (2015).
In brackets after ≈: the same amount, converted by molar mass. Activity calls are given as the source filed them. The rule behind the calls is not given here.

How the values were obtained:
Candida albicans [1] = assay: Antimicrobial activity against Candida albicans MTCC 3017 assessed as growth inhibition at 4 mg/ml after 24 hrs by agar well diffusion method; type: functional; details: MTCC 3017, 24 h, read-out: DIZ
Rattus norvegicus [2] = assay: Antiinflammatory activity against carrageenan-induced paw edema male Wistar albino rat at 50 mg/kg, ip administered 30 mins prior to carrageenan-challenge measured after 1 hr relative to control; type: functional; details: route intraperitoneal
Bacillus subtilis [3] = assay: Antimicrobial activity against Bacillus subtilis MTCC 121 assessed as growth inhibition at 4 mg/ml after 24 hrs by agar well diffusion method; type: functional; details: for zone of inhibition at 4000 µg/mL: MTCC 121, 24 h, read-out: DIZ
Rattus norvegicus [4] = assay: Antiinflammatory activity against carrageenan-induced paw edema male Wistar albino rat assessed as edema volume at 50 mg/kg, ip administered 30 mins prior to carrageenan-challenge measured after 2 hrs (reference value: 1.21 +/- 0.16 mL); type: functional; details: route intraperitoneal
Rattus norvegicus [5] = assay: Antiinflammatory activity against carrageenan-induced paw edema male Wistar albino rat at 50 mg/kg, ip administered 30 mins prior to carrageenan-challenge measured after 4 hrs relative to control; type: functional; details: route intraperitoneal
Candida albicans [6] = assay: Antimicrobial activity against Candida albicans MTCC 3017 assessed as growth inhibition after 24 hrs by agar well diffusion method; type: functional; details: MTCC 3017, 24 h
Staphylococcus aureus [7] = assay: Antimicrobial activity against Staphylococcus aureus MTCC 96 assessed as growth inhibition at 4 mg/ml after 24 hrs by agar well diffusion method; type: functional; details: for zone of inhibition at 4000 µg/mL: MTCC 96, 24 h, read-out: DIZ
Escherichia coli = assay: Antimicrobial activity against Escherichia coli MTCC 1652 assessed as growth inhibition at 4 mg/ml after 24 hrs by agar well diffusion method; type: functional, organism-based
Staphylococcus aureus [8] = assay: Antimicrobial activity against Staphylococcus aureus MTCC 96 assessed as growth inhibition after 24 hrs by agar well diffusion method; type: functional
Rattus norvegicus [9] = assay: Antiinflammatory activity against carrageenan-induced paw edema male Wistar albino rat assessed as edema volume at 50 mg/kg, ip administered 30 mins prior to carrageenan-challenge measured after 4 hrs (reference value: 1.88 +/- 0.20 mL); type: functional; details: route intraperitoneal
Rattus norvegicus [10] = assay: Antiinflammatory activity against carrageenan-induced paw edema male Wistar albino rat assessed as edema volume at 50 mg/kg, ip administered 30 mins prior to carrageenan-challenge measured after 3 hrs (reference value: 1.73 +/- 0.09 mL); type: functional; details: route intraperitoneal
Saccharomyces cerevisiae [11] = assay: Antimicrobial activity against Saccharomyces cerevisiae MTCC 170 assessed as growth inhibition at 4 mg/ml after 24 hrs by agar well diffusion method; type: functional; details: for zone of inhibition at 4000 µg/mL: MTCC 170, 24 h, read-out: DIZ
Rattus norvegicus [12] = assay: Antiinflammatory activity against carrageenan-induced paw edema male Wistar albino rat at 50 mg/kg, ip administered 30 mins prior to carrageenan-challenge measured after 2 hrs relative to control; type: functional; details: route intraperitoneal
Bacillus subtilis [13] = assay: Antimicrobial activity against Bacillus subtilis MTCC 121 assessed as growth inhibition after 24 hrs by agar well diffusion method; type: functional
Rattus norvegicus [14] = assay: Antiinflammatory activity against carrageenan-induced paw edema male Wistar albino rat assessed as edema volume at 50 mg/kg, po administered 30 mins prior to carrageenan-challenge measured after 1 hr (reference value: 1.11 +/- 0.12 mL); type: functional
Saccharomyces cerevisiae [15] = assay: Antimicrobial activity against Saccharomyces cerevisiae MTCC 170 assessed as growth inhibition after 24 hrs by agar well diffusion method; type: functional
Rattus norvegicus [16] = assay: Antiinflammatory activity against carrageenan-induced paw edema male Wistar albino rat at 50 mg/kg, ip administered 30 mins prior to carrageenan-challenge measured after 3 hrs relative to control; type: functional; details: route intraperitoneal
Pseudomonas aeruginosa = details: MTCC 741, 4 mg/ml
Description: Antimicrobial activity against Pseudomonas aeruginosa MTCC 741 assessed as growth inhibition at 4 mg/ml after 24 hrs by agar well diffusion method

Row | Structure (SMILES) | zone of inhibition at 4000 µg/mL (Candida albicans [1]) [mm] | Activity (Rattus norvegicus [2]) [%] | Activity (Rattus norvegicus [4]) [mL] | Activity (Rattus norvegicus [5]) [%] | MIC (Candida albicans [6]) [µg/mL] | diameter of the inhibition zone (DIZ) (Staphylococcus aureus [7]) | diameter of the inhibition zone (DIZ) (Escherichia coli) | MIC (Staphylococcus aureus [8]) | Activity (Rattus norvegicus [9]) [mL] | Activity (Rattus norvegicus [10]) [mL] | diameter of the inhibition zone (DIZ) (Saccharomyces cerevisiae [11]) | Activity (Rattus norvegicus [12]) [%] | Activity (Rattus norvegicus [14]) [mL] | MIC (Saccharomyces cerevisiae [15]) | Activity (Rattus norvegicus [16]) [%] | DIZ (Pseudomonas aeruginosa) | zone of inhibition at 4000 µg/mL (Bacillus subtilis [3]) [mm] | zone of inhibition at 4000 µg/mL (Saccharomyces cerevisiae [11]) [mm] | MIC (Bacillus subtilis [13]; MTCC 121, 24 h) [µg/mL] | MIC (Saccharomyces cerevisiae [15]; MTCC 170, 24 h) [µg/mL] | other results
1 | CCOC(=O)c1sc(-c2cn(-c3ccccc3)nc2-c2ccccc2)nc1-c1ccc(F)cc1 | 18.6 | 73.87 | 0.22 | 88.29 | 25 (≈ 53.2 µM) | inactive | inactive | inactive | 0.42 | 0.31 | inactive | 81.81 | 0.29 | inactive | 82.08 | inactive | – | – | – | – | diameter of the inhibition zone (DIZ) (Bacillus subtilis [3]): inactive; MIC (Bacillus subtilis [13]): inactive
2 | COc1ccc(-c2nc(-c3cn(-c4ccccc4)nc3-c3ccccc3)sc2C(=O)O)cc1 | 15.3 | 82.88 | 0.25 | 88.29 | 50 (≈ 110 µM) | – | inactive | – | 0.22 | 0.24 | – | 79.33 | 0.19 | – | 86.12 | inactive | 17.6 | 21.3 | 50 (≈ 110 µM) | 25 (≈ 55.1 µM) | zone of inhibition at 4000 µg/mL (Staphylococcus aureus [7]): 20.3 mm; MIC (Staphylococcus aureus [8]; MTCC 96, 24 h): 25 µg/mL (≈ 55.1 µM)
3 | CCOC(=O)c1sc(-c2cn(-c3ccccc3)nc2-c2ccc(Cl)cc2)nc1-c1ccc(OC)cc1 | 15.3 | 90.99 | 0.35 | 88.92 | 50 (≈ 96.9 µM) | inactive | inactive | inactive | 0.21 | 0.25 | inactive | 71.07 | 0.1 | inactive | 85.54 | inactive | 15.3 | – | 50 (≈ 96.9 µM) | – | –
4 | O=C(O)c1sc(-c2cn(-c3ccccc3)nc2-c2ccc(Cl)cc2)nc1-c1ccccc1 | 24.6 | 71.17 | 0.46 | 71.27 | 6.25 (≈ 13.6 µM) | – | inactive | – | 0.54 | 0.69 | – | 61.98 | 0.32 | – | 60.11 | inactive | 22.6 | 26.6 | 12.5 (≈ 27.3 µM) | 6.25 (≈ 13.6 µM) | zone of inhibition at 4000 µg/mL (Staphylococcus aureus [7]): 22.6 mm; MIC (Staphylococcus aureus [8]; MTCC 96, 24 h): 25 µg/mL (≈ 54.6 µM)
5 | O=C(O)c1sc(-c2cn(-c3ccccc3)nc2-c2ccc(Cl)cc2)nc1-c1ccc(F)cc1 | 12 | 73.87 | 0.33 | 79.78 | 50 (≈ 105 µM) | inactive | inactive | inactive | 0.38 | 0.49 | – | 72.72 | 0.29 | – | 71.67 | inactive | – | 24.6 | – | 12.5 (≈ 26.3 µM) | diameter of the inhibition zone (DIZ) (Bacillus subtilis [3]): inactive; MIC (Bacillus subtilis [13]): inactive
6 | COc1ccc(-c2nc(-c3cn(-c4ccccc4)nc3-c3ccc(F)cc3)sc2C(=O)O)cc1 | 15.3 | 80.18 | 0.4 | 80.85 | 50 (≈ 106 µM) | – | inactive | – | 0.36 | 0.56 | – | 66.94 | 0.22 | – | 67.63 | inactive | 14.6 | 15.3 | 50 (≈ 106 µM) | 50 (≈ 106 µM) | zone of inhibition at 4000 µg/mL (Staphylococcus aureus [7]): 20.6 mm; MIC (Staphylococcus aureus [8]; MTCC 96, 24 h): 25 µg/mL (≈ 53 µM)
7 | CCOC(=O)c1sc(-c2cn(-c3ccccc3)nc2-c2ccc(Cl)cc2)nc1-c1ccc(Cl)cc1 | 13 | 83.78 | 0.27 | 90.42 | 50 (≈ 96.1 µM) | inactive | inactive | inactive | 0.18 | 0.12 | – | 77.68 | 0.18 | – | 93.06 | inactive | – | 15 | – | 50 (≈ 96.1 µM) | diameter of the inhibition zone (DIZ) (Bacillus subtilis [3]): inactive; MIC (Bacillus subtilis [13]): inactive
8 | CCOC(=O)c1sc(-c2cn(-c3ccccc3)nc2-c2ccc(Cl)cc2)nc1-c1ccc(F)cc1 | 17.6 | 83.78 | 0.47 | 89.89 | 50 (≈ 99.2 µM) | – | inactive | – | 0.19 | 0.5 | inactive | 61.15 | 0.18 | inactive | 71.09 | inactive | 13.3 | – | 50 (≈ 99.2 µM) | – | zone of inhibition at 4000 µg/mL (Staphylococcus aureus [7]): 12 mm; MIC (Staphylococcus aureus [8]; MTCC 96, 24 h): 50 µg/mL (≈ 99.2 µM)
9 | CCOC(=O)c1sc(-c2cn(-c3ccccc3)nc2-c2ccc(F)cc2)nc1-c1ccc(OC)cc1 | 15.6 | 80.18 | 0.27 | 82.97 | 50 (≈ 100 µM) | inactive | inactive | inactive | 0.32 | 0.39 | inactive | 79.33 | 0.22 | inactive | 77.45 | inactive | 13.3 | – | 50 (≈ 100 µM) | – | –
10 | CCOC(=O)c1sc(-c2cn(-c3ccccc3)nc2-c2ccc(OC)cc2)nc1-c1ccc(OC)cc1 | 16.6 | 86.48 | 0.19 | 90.95 | 50 (≈ 97.7 µM) | – | – | – | 0.17 | 0.27 | inactive | 84.29 | 0.15 | inactive | 84.39 | – | – | – | – | – | diameter of the inhibition zone (DIZ) (Bacillus subtilis [3]): inactive; zone of inhibition at 4000 µg/mL (Staphylococcus aureus [7]): 15 mm; MIC (Staphylococcus aureus [8]; MTCC 96, 24 h): 50 µg/mL (≈ 97.7 µM); MIC (Bacillus subtilis [13]): inactive
11 | C[C@@H]1[C@H](O)[C@@H](C)/C=C/C=C/C=C/C=C/C=C/C=C/C=C/[C@H](O[C@@H]2O[C@H](C)[C@@H](O)[C@H](N)[C@@H]2O)C[C@@H]2O[C@](O)(C[C@@H](O)C[C@@H](O)[C@H](O)CC[C@@H](O)C[C@@H](O)CC(=O)O[C@H]1C)C[C@H](O)[C@H]2C(=O)O [AMPHOTERICIN B] | 16.6 | – | – | – | 6.25 (≈ 6.76 µM) | – | – | – | – | – | – | – | – | – | – | – | – | 19.3 | – | 6.25 (≈ 6.76 µM) | –
